The test system of test [1] is Collagen 1 (COL1A1). In words: TLDA gene expression in normal human fibroblasts (NHF): COL1A1. In kind it is cell-based. As to the method: (§1) The cell culture medium is removed and 250 μL of RLT lysis buffer (provided in the Nucleospin RNA trace kit, Macherey-Nagel) is added. The cells are scraped with a Cell Scraper and then the cell lysate is recovered in a 1.2 mL deepwell (provided in the Nucleospin RNA kit). The total RNAs are extracted according to the defined protocols.
(§2) The total RNA solutions obtained are assayed, and their quality checked, using a microplate reader, the spectrostarNANO (BMG Labtech) coupled to the MicrolabSTAR. This apparatus is connected to the computer controlling the Robotics platform and has the specific software for the analysis of the results (MARS software). The technique requires a 384-well microplate (LoBase), a positive control (RNA 250, AM7155, Thermofisher) to validate the pipetting performed by the robot as well as the values generated by the spectrostarNANO reader. • Synthesis of complementary DNA […]
(§3) Real-time quantitative PCR can be exploited if its efficiency is between 90% and 110%. For each sample, the number of cycles at which the signal appears is determined by the SDS 2.3 software. […]
(§4) In the TLDA RT-PCR method, quantification is performed using the comparative method of ΔΔCt. The relative quantification (RQ) values obtained correspond to the amplitude level (x times more or less than the control) of the expression compared with our control, here the non-irradiated. […]

Test [2] concerns Procollagen C endopeptidase enhancer (PCOLCE). In words: TLDA gene expression in NHF: PCOLCE. Format: cell-based, human. To be noted: Vit C 50 μg/mL (positive control), control = 1. As to the method:
as §1, §2, §3, §4

In test [3] the test system is Collagen 5 (COL5A1). In words: TLDA gene expression in NHF: COL5A1. In kind it is cell-based, human. The protocol:
as §1, §2, §3, §4

Test [4] concerns Matrix Metalloproteinase 3 (MMP3). In words: TLDA gene expression in NHF: MMP3. Format: cell-based, human. To be noted: Vit C 50 μg/mL (positive control), control = 1. As to the method: as §1, §2, §3, §4
Test [5] has as its system Lysyl oxidase like 1 (LOXL1). In words: TLDA gene expression in NHF: LOXL1. In kind it is cell-based, human. To be noted: Vit C 50 μg/mL (positive control), control = 1. As to the method: as §1, §2, §3, §4
The test system of test [6] is Emilin 1 (Emilin1). In words: TLDA gene expression in NHF: Emilin1. Format: cell-based, human. The protocol: as §1, §2, §3, §4
Test [7] relates to Fibrillin 1 (FBN1). In words: TLDA gene expression in NHF: FBN1. In kind it is cell-based, human. Particulars: Vit C 50 μg/mL (positive control), control = 1. As to the method: as §1, §2, §3, §4
Test [8] concerns Elastin (ELN). In words: TLDA gene expression in NHF: ELN. In kind it is cell-based, human. Particulars: Vit C 50 μg/mL (positive control), control = 1. As to the method:
as §1, §2, §3, §4

For test [9], the system named is Collagen 3 (COL3A1). In words: TLDA gene expression in NHF: COL3A1. Format: cell-based, human. As to the method: as §1, §2, §3, §4
[10] abbreviates: Vit C 50 μg/mL (positive control), control = 1.

With `O=C1O[C@H]([C@@H](O)CO)C(O)=C1O` [Vit C], the “COL1A1 expression, RQ” value in [1] (setting [10]) came to 3.471. Further, the “increase of Collagen 1 expression” value in test [1] (Vit C (50 μg/mL)) is recorded as “+247%”. Moreover, the “PCOLCE expression, RQ” value in test [2] is given as 1.156. For the same compound, the “COL5A1 expression, RQ” value in test [3] (setting [10]) was found to be 1.911. Moreover, the “increase of Collagen 5 expression” value in test [3] (Vit C (50 μg/mL)) is “+91%”. Moreover, the “MMP3 expression, RQ” value in test [4] came to 1.205. For the same compound, in test [5], the “LOXL1 expression, RQ” value turned out to be 1.202. In test [6] (setting [10]), the “Emilin1 expression, RQ” value worked out at 2.509. For the same compound, the “increase of Emilin 1 expression” value in [6] (Vit C (50 μg/mL)) was “+151%”. The “FBN1 expression, RQ” value in [7] was 0.989. For the same compound, the “ELN expression, RQ” value in test [8] is given as 1.016. The “COL3A1 expression, RQ” value in test [9] (setting [10]) was determined as 2.599. Besides, the “increase of Collagen 3 expression” value in test [9] (Vit C (50 μg/mL)) is “+160%”.

The record behind these values is patent US20210369595A1, “Cosmetic composition comprising an aqueous extract of rose fruit” (L V M H RECHERCHE, priority 2018, published 2021).
